The subject of assay [1] is Gem-naïve and Gem-resistant PDAC cells. As to the kind of experiment: Colony formation assay. It is filed as cell-based, human. As for the experimental part:
(§1) S2-013 (FIG. 10A), MiaPaCa-2 (FIG. 10B) and MiaPaCa-GTR (FIG. 10C) show cells seeded at 1000 cells/well and treated with compounds (μM) for 14 days. Media was replaced every 72 hours. Cells were stained with 0.05% crystal violet. Conditioned media from MiaPaCa-2 cells after being treated with indicated compounds was separated on a zymogram gel to analyze the proteolytic activity of MMP9 after treatment (FIG. 10D).
FIG. 11: Inhibition of colony formation in S2-013 cells.
S2-013, MiaPaCa-2 and MiaPaCa-GTR were seeded at 1000 cells/well and treated with compounds (μM) for 14 days. Media was replaced every 72 h. Cells were stained with 0.05% crystal violet (FIG. 10A-C).

A further assay deals with Panc-1 cells. Briefly: Wound-healing (scratch) migration assay. The note with it: Panc-1, 5 μM, 12 hours. It is filed as cell-based, human. As for the experimental part:
FIG. 12: Panc-1 and S2-013 cells plated in 24-well plate in a monolayer and scratch wound made with a 200 μl pipette tip and treated with indicated compounds at 5 μM for 12 hours.
The present Example investigates whether ARDAs inhibit the migratory and invasive potential of PDAC cells. Decreased invasive potential of PDAC cells was shown through wound-healing and matrigel-coated Boyden chambers assays. Cells grown to a monolayer were used in migration assay after a scratch was made and incubated for 12 hours. […] In contrast, CGP and Gem were not effective. As expected these compounds also exerted strong anti-invasive efficacy against Capan-1 cells. The tested concentrations at time (12 h) of assay, all cells in each treatment group were ≥90% viable.

Another assay deals with MMP9. Briefly: Zymography of conditioned media from MiaPaCa-2 cells. It is filed as cell-based, human. As to conditions: conditioned media of MiaPaCa-2 cells treated 3 days. The procedure:
as §1
Zymography assays were performed by seeding cells in 10 cm plates in phenol-red free media with no fetal bovine serum (FBS) and treated for 3 days. Media from cells were concentrated using amicon ultra filtration columns and normalized protein run on a 10% gelatin gels. Conditioned media from MiaPaCa-2 cells after being treated with indicated compounds was separated on a zymogram gel to analyze the proteolytic activity of MMP9 after treatment (FIG. 10D). […] The ARDAs caused significant depletion of matrix metalloproteinases (MMPs).

Assay [2] relates to S2-013. Briefly: Apoptosis, acridine orange ethidium bromide staining. It is filed as cell-based, human. As to conditions: S2-013 metastatic cell line, 2.5 μM, 24 hours. As for the experimental part:
(§2) FIG. 18: Apoptotic induction of Gal and Analogs and Gem-resistant PDAC cells. (FIG. 18A) Galeterone and analogs induce apoptosis in S2-013 cells analyzed by acridine orange ethidium bromide staining. Cells were treated with 2.5 μM. (FIG. 18B) Galeterone and analogs were compared to gemcitabine in inducing apoptosis analyzed by flow cytometry in MiaPaCa-GR cells.
(§3) Cells treated with indicated doses for 24 hours were analyzed by acridine orange ethidium bromide assay and also by FACS analysis using Annexin V and PI staining following manufacturer's protocol. […] Galeterone and analogs induce apoptosis in S2-013 cells analyzed by acridine orange ethidium bromide staining ([…]). Galeterone and analogs were compared to gemcitabine in inducing both early and late apoptosis analyzed by flow cytometry (FIG. 18B).

Another assay deals with MiaPaCa-GTR. Briefly: MTT cell viability assay. It is filed as cell-based. The note with it: Homo sapiens, MiaPaCa-GTR (gemcitabine/erlotinib resistant), single agent. As for the experimental part: (§4) FIG. 7: Effect of Galeterone, analogs and Gemcitabine on PDAC cells. MTT cell viability assays were conducted on Gem-naïve and Gem-resistant cells.
(§5) Examples below were preformed using a panel of PDAC cells from primary tumors (MiaPaca-2, Panc-1, Capan-1 and HS766T), metastatic lesions (S2-013 and S2VP10) and drug-resistant MiaPaCa-GR (gemcitabine resistant-200 nM) and MiaPaCa-GTR (erlotinib-2 μM/gemcitabine-200 nM) cell lines. The activities of ARDAs and Gemcitabine (Gem) can be evaluated using complementary assays and molecular determinants can also be identified in a panel of human PDAC cells. The mechanism(s) of action of ARDAs alone and in combination with Gem with the primary goal to identify the key mediators for their activities in PDAC cells are disclosed here. […] Initially four cell line (2 Gem-naïve and the two Gem-resistant lines) will be used. Key findings derived from these cell lines can be validated in additional cell lines if necessary. How these agents modulate Mnk1/2-peIF4E and NFκ-B can also be focused on.
(§6) The present Example investigates the potential efficacy of galeterone and three lead ARDAs in inhibiting cell viability of both gemcitabine naïve (Gem-naïve) and gemcitabine/erlotinib resistant human pancreatic cancer cells in vitro. […]
For orientation: Tetrazolium dyes change colour on reduction, which living cells bring about.

Assay [3] deals with MiaPaCa-GR. Briefly: MTT cell viability assay. Format: cell-based. As to conditions: Homo sapiens, MiaPaCa-GR (gemcitabine resistant), single agent. As for the experimental part:
as §4, §5, §6

For assay [4], the system named is MiaPaCa-GR. Briefly: Apoptosis, flow cytometry Annexin V and PI staining. As to conditions: MiaPaCa-GR cells, 24 hours. Format: cell-based, human. The procedure: as §2, §3
A general note: A flow cytometer gives signals particle by particle.

A further assay deals with MiaPaCa-2. As to the kind of experiment: MTT cell viability / anti-proliferative assay. Format: cell-based, human. The note with it: for anti-proliferative potency compared with gemcitabine: MiaPaCa-2 cells, MTT assay after a 7-day agent treatment. As for the experimental part: FIG. 6: Inhibition of PDAC cell proliferation: MTT assay after a 7-day agent treatment.
as §4
The present Example presents the in vitro anti-proliferative activities of compounds in three human PDAC cell lines, including, Capan-1, MiaPaCa-2 and S2-013 because of their relative resistant nature (30, 31). The cell lines used were authenticated by short tandem repeat.
(§7) The present Example investigates the potential efficacy of galeterone and three lead ARDAs in inhibiting cell viability of both gemcitabine naïve (Gem-naïve) and gemcitabine/erlotinib resistant human pancreatic cancer cells in vitro. […] Galeterone and its analogs show significant anti-proliferative active against both gemcitabine naïve and gemcitabine resistant PDAC cells.

For assay [5], the system named is S2-013. As to the kind of experiment: MTT cell viability assay. It is filed as cell-based. As to conditions: Homo sapiens, S2-013, single agent. As for the experimental part:
as §4, §7

The next assay addresses T1, androgen receptor (Homo sapiens, UniProt P10275).
T1 sequence (P10275 1-920): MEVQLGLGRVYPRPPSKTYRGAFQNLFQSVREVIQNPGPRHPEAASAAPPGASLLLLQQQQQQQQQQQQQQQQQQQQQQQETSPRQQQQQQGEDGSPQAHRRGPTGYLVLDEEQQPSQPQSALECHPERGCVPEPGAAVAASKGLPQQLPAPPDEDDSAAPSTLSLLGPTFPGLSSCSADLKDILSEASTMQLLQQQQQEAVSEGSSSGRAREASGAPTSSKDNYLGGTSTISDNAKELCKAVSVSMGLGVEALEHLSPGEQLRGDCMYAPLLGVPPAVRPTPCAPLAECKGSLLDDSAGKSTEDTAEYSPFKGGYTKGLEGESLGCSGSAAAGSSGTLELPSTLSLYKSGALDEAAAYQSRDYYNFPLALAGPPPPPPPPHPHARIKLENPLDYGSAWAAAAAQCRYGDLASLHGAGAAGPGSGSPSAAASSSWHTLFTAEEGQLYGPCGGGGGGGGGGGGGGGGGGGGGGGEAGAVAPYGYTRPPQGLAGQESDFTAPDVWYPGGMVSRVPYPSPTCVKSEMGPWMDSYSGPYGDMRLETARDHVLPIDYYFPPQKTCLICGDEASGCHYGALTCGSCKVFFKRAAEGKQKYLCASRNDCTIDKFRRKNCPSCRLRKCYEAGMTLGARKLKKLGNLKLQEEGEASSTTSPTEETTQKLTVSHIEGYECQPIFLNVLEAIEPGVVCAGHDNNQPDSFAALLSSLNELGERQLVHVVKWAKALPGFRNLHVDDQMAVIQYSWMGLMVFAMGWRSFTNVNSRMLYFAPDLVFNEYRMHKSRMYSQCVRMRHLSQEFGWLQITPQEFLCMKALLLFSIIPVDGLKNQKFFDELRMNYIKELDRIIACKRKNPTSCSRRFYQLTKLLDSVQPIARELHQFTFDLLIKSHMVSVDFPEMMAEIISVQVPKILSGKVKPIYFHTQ
The note with it: compared to VN/124-1, reference (1); cited from earlier work.

The conditions of assay [6]: compared to VN/124-1, reference (1); cited from earlier work.
For assay [7], the system named is patients with advanced-stage pancreatic cancer. As to conditions: in combination with gemcitabine, Moore et al. 2007; cited from earlier work.
Setting [8] is: 1000 cells/well, treated 14 days, alone or in combination with gemcitabine.

Data on 7 compounds can be found in US11707468B2, “Methods of treating pancreatic cancer” (UNIVERSITY OF MARYLAND, BALTIMORE, priority 2014, dated 2023).

For `Nc1ncnc2n[nH]c(Nc3ccc(F)cc3)c12` [CGP, reference compound], the colony formation result in [1] (CGP at 2.5 μM) was “did not significantly affect colony formation”. Besides, the cell migration entry in the assay with Panc-1 cells is “not effective”.
In general, GI50 refers to the concentration that inhibits growth by half. As for `C[C@]12CC[C@H](O)CC1=CC[C@@H]1[C@@H]2CC[C@]2(C)C(n3cnc4ccccc43)=CC[C@@H]12` [Galeterone, galeterone], the MMP9 secretion entry in the assay with MMP9 (alone) and with MMP9 (in combination with gemcitabine) was “decreases MMP9 secretion” each time. Besides, the induction of apoptosis entry in the assay on S2-013 [2] and in the assay on MiaPaCa-GR [4] was “significantly induce apoptosis” throughout. Also, the GI50 in the assay on MiaPaCa-GTR came out at 2190 nM; with MiaPaCa-GR [3], 7080 nM; in the assay on MiaPaCa-2 (Homo sapiens, MIA PaCa-2, MiaPaCa-2, single agent, MTT) it was 1230 nM; in the assay with S2-013 [5], 490 nM. Moreover, the “anti-proliferative potency compared with gemcitabine” value with MiaPaCa-2 is “almost as potent as gemcitabine”. The colony formation entry in assay [1] (setting [8]) is recorded as “significantly inhibited”. In addition, in the assay with Panc-1 cells, the cell migration result is “significant inhibition”.
Take `Nc1ccn([C@@H]2O[C@H](CO)[C@@H](O)C2(F)F)c(=O)n1` [Gemcitabine, reference compound]: the colony formation result in assay [1] (setting [8]) is recorded as “inhibit colony formation”. Also, the cell migration entry with Panc-1 cells was “not effective”.
`C[C@]12CC[C@H](OCc3ccncc3)CC1=CCC1C2CC[C@]2(C)C(n3cnc4ccccc43)=CCC12` (stereo partly shown) [VNPP414]: the “anti-proliferative potency compared with gemcitabine” value with MiaPaCa-2 was “almost as potent as gemcitabine”. Also, the cell migration result with Panc-1 cells is listed as “significant inhibition”.
Turning to `C[C@]12CC[C@H](n3ccnc3)CC1=CC[C@@H]1[C@@H]2CC[C@]2(C)C(n3cnc4ccccc43)=CC[C@@H]12` [VNPP433-3β], in the assay on MiaPaCa-2, the “anti-proliferative potency compared with gemcitabine” value is given as “almost as potent as gemcitabine”.
Take `C[C@]12CC[C@H](OC(=O)n3ccnc3)CC1=CCC1C2CC[C@]2(C)C(n3cnc4ccccc43)=CCC12` (stereo partly shown) [VNPT-55]: the “ARD potency relative to VN/124-1” value at androgen receptor was 8 fold. The “anti-proliferative potency compared with gemcitabine” value in the assay with MiaPaCa-2 is “almost as potent as gemcitabine”. In [6], the “anti-proliferative (AP) potency relative to VN/124-1” value was 4 fold.
In the case of `C#Cc1cccc(Nc2ncnc3cc(OCCOC)c(OCCOC)cc23)c1` [erlotinib], the “median overall survival benefit” value in assay [7] is recorded as “less than four weeks”.
